“Also recorded” adds a separate entry of the source. Peptide text beside a SMILES is read from it.

A word on the Kd: it is the equilibrium constant for the complex coming apart. Low readings indicate tighter binding, high ones weaker binding.

The test system of one assay is isoD7-Aβ16. Briefly: NMR titration, isoD7-Aβ16 with HAEE and Zn2+. In kind it is binding. The settings on record: NMR. As for the experimental part:
(§1) Peptides Aβ16, H6R-Aβ16 and isoD7-Aβ16 at the concentration of 0.2 - 8mM were dissolved in 10-20 mM bis-Tris-d19 (2,2-Bis(hydroxymethyl)-2,2′,2"-nitrilotrie-thanol-d19 with 98% ^2D enrichment) buffer solution (pH 6.8). Sodium salt of 3-(trimethylsilyl) propionic-2,2,3,3-d4 acid (DSS) at a concentration of 10-20 μM was added as the standard. NMR spectra were measured at 278 K in 90% H2O/10% D2O with Bruker AVANCE 600 MHz spectrometer equipped with triple resonance (^1H, ^13C and ^15N) pulsed field z gradient probe. 1D NMR spectra were processed and analyzed using the Mnova software (Mestrelab Research, Spain). In order to monitor peptide-peptide interactions NMR titration experiments were carried out. […] 1D spectra were recorded for each titration point.

Another assay relates to C. elegans CL2120. Put plainly: Lifespan analysis, C. elegans CL2120. In kind it is in vivo. The settings on record: for Mean survival: Aβ42 or isoD7-Aβ42 40 μM, HAEE 4 mM; for Increase/decrease in lifespan: vs control of same repeat. As to the method: C. elegans CL2120 (dvIs14 [(pCL12) unc-54::beta 1-42 +(pCL26) mtl-2::GFP]) and C. elegans CL2122 (dvIs15 [(pPD30.38) unc-54(vector) + (pCL26) mtl-2::GFP]) strains were obtained from the Caenorhabditis Genetics Center. The worms were handled according to standard methods without FUDR [18]. E. coli OP50 bacteria were grown overnight in Luria-Bertani broth and 50µl were spread atop NGM or NGMZn plates. NGMZn has 20μM ZnSO4. Seeded plates were incubated at 30°C for ~16 hours and then for 1-2 hours at 15 or 25°C before worms were transferred. Lifespan and paralysis experiments (see below) were performed at 25°C for enhanced expression of Aβ. This temperature is standard when studying the effects of Aβ on C. elegans CL2120 strain [19].
Nematodes were purified from unwanted microflora by the alkaline hypochlorite method, grown to the L4 stage at 15°C on NGM plates with bacterial lawn. […] Further, all contents were transferred to Petri plates with NGM or NGMZn with OP50 and placed in a temperature-controlled incubator at 25°C. Next day, worms were transferred onto similar media with a bacterial substrate and the lifespan was determined at 25°C (Supplementary Tables 3, 4).
Lifespans were monitored at 25°C as described previously. All experiments were repeated at least three times and ≈130 worms were used for each experiment. Details regarding repeated experiments and amounts of animals used for experiments are summarized in Supplementary Tables 3, 4. In all cases, stage L4 worms were used at t = 0 for lifespan analyses and worms were transferred every other day to new agar plates. […] Escaped animals or animals with internal hatching were not included in lifespan calculation. Data was analyzed and Boltzmann sigmoid survival curves generated using the SciDAVis statistical analysis software package. Mean lifespans were compared in Microsoft Excel using the Student t test, applying one-tailed distribution and two-sample equal variance. All lifespan plots represent the composites of all independent experiments tabulated in Supplementary Tables 3, 4. Mean percentage change ±SD of lifespan after treatment, relative to untreated control are indicated in each graph in the same color as the curve.

In another assay the test system is H6R-Aβ16. Briefly: NMR titration, H6R-Aβ16 dimer with HAEE and Zn2+. In kind it is binding, human. The settings on record: 1H NMR, H6R-Aβ16 1.6 mM, pH 6.8, 0.5 equivalent ZnCl2, titration by HAEE; V12 methyl signal at 0.2 ppm. As to the method: as §1
Figure 1. Interaction of HAEE with beta-amyloid. (A) A model for the contribution of isoD7-Aβ to AD pathology, and the possible ways of preventing its deleterious effects. Aβ spontaneously converts into isoD7-Aβ, which is accumulated over age, likely due to reduced Aβ clearance. Isomerized Aβ promotes AD pathology, potentially via formation of Zn-bound complexes serving as the seeds for a generation of neurotoxic oligomers. […] The amount of dimeric form is determined by the intensity of its characteristic signal at 0.2 ppm. […]

Another assay addresses T1, immobilized isoD7-Aβ42 (Homo sapiens, UniProt P05067).
T1 construct: isoD7-Aβ42 (DAEFRH[isoD][…]); purchased Biopeptide Co., LLC (San Diego, CA, USA); host or cells: chemical synthesis
Briefly: SPR analysis of HAEE binding to immobilized isoD7-Aβ42. As to the method: All SPR measurements were carried out at 25°C using an optical biosensor Biacore 8K (GE Healthcare, USA) with CM4 optical chip. Covalent immobilization of the peptide ligands on the surface of the optical chip was performed using the sulfhydryl group of the C-terminal tetragly-cylcysteine tag. Briefly, carboxyl groups on the chip surface were activated by serial injections of mixture of 0.4 M EDC/0.1 M NHS at a flow rate of 10 μL/min for 2 min and a solution of 80 mM PDEA in 100 mM borate buffer (pH 8.5) for 4 min. Solutions of 2 μM peptides in the immobilization buffer (10 mM acetate buffer, pH 4.5) were injected for 2 min at a flow rate of 10 μL/min (three repeats). Unreacted activated groups on the chip were blocked by further injection of a solution containing 50 mM cysteine, 1 M NaCl, 0.1 M sodium acetate (pH 4.3) for 4 min at a flow rate of 5 μL/min. Possible nonspecific analyte binding to the chip surface was evaluated using a free (control) channel of the biosensor exposed to the same treatments as the working channel except peptides. SPR signals were recorded in real time in resonance units (RU; 1 RU corresponds to […]) and were presented in the form of sensorgrams showing time-dependent signal changes. […] The obtained sensorgrams were analyzed with BIAevaluation v.4.1 software.
Background: SPR reads the build-up and loss of mass on a sensor chip optically.

The mark [1] stands for this setting: CL2120, NGM (no Zn), replicate 1.
Setting [2] is: CL2120, NGM (no Zn), replicate 2.
Where [3] appears, read: CL2120, NGM (no Zn), replicate 3.

T1 sequence (P05067 672-713): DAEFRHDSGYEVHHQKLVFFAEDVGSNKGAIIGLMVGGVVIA

In the case of `CC(=O)N[C@@H](Cc1c[nH]cn1)C(=O)N[C@@H](C)C(=O)N[C@@H](CCC(=O)O)C(=O)N[C@@H](CCC(=O)O)C(N)=O` [HAEE, Ac-HAEE-NH2] (Ac-HAEE-NH2), the “Zinc-dependent dimerization of isoD7-Aβ16” value with isoD7-Aβ16 (278 K, pH 6.8, Zn2+) is given as “inhibits”. For the same compound, the “Effect of Zn2+ on isoD7-Aβ16 NMR signal in the presence of HAEE” value with isoD7-Aβ16 (pH 6.8, 278 K, Zn2+ plus HAEE) is “did not diminish the isoD7-Aβ16 signal”. The “Effect of HAEE itself on lifespan” value in the assay on C. elegans CL2120 (CL2120, HAEE 4 mM) is on record as “no effect”. Moreover, the Mean survival with C. elegans CL2120 (CL2120, NGM (no Zn), 25°C, mean ± SD of 3 experiments) was 8.83 ± 0.31 days; in the assay on C. elegans CL2120 (CL2120, NGMZn (ZnSO4 20 μM), 25°C, mean ± SD of 3 (isoD7-Aβ42: 5) experiments) it was 9.2 ± 0.7 days. The 50% survival in the assay with C. elegans CL2120 (setting [1]) is given as 8.5 days; in the assay with C. elegans CL2120 (setting [2]), 8.9 days; in the assay with C. elegans CL2120 (setting [3]), 9.1 days; with C. elegans CL2120 (CL2120, NGMZn, replicate 1), 9.3 days; in the assay with C. elegans CL2120 (CL2120, NGMZn, replicate 2) it was 9 days; in the assay on C. elegans CL2120 (CL2120, NGMZn, replicate 3), 9.3 days. In addition, the “Mean increase/decrease in lifespan” value in the assay on C. elegans CL2120 (CL2120, NGM (no Zn), vs control NGM, mean ± SD of 3 experiments) turned out to be 1.53±0.63%; in the assay on C. elegans CL2120 (CL2120, NGMZn, vs control NGMZn, mean ± SD of 3 (isoD7-Aβ42: 5) experiments) it was 1.85 ±0.66%. Also, the Increase/decrease in lifespan is reported as 1.19% in the assay with C. elegans CL2120 (setting [1]); 1.14% with C. elegans CL2120 (setting [2]); 2.25% in the assay with C. elegans CL2120 (setting [3]); 1.09% with C. elegans CL2120 (CL2120, NGMZn, replicate 1); 2.27% in the assay with C. elegans CL2120 (CL2120, NGMZn, replicate 2); 2.20% with C. elegans CL2120 (CL2120, NGMZn, replicate 3). In addition, the “Effect on lifespan” value in the assay with C. elegans CL2120 (CL2120, NGM, without Zn2+, 25°C) is “do not affect”. The “Effect of HAEE on lifespan shortened by isoD7-Aβ42 + Zn2+” value in the assay with C. elegans CL2120 (CL2120, NGMZn, HAEE 4 mM + isoD7-Aβ42 40 μM) is listed as “removes the negative effect; also recorded: completely restored the shortened lifespan”. Also, the “Amount of dimeric form of H6R-Aβ16 upon addition of HAEE” value with H6R-Aβ16 is “decrease in the amount of dimeric H6R-Aβ16; also recorded: disappearance of the dimeric form; also recorded: shifts the equilibrium between monomeric and dimeric Aβ towards its monomeric form”. In addition, at immobilized isoD7-Aβ42 (10 mM HEPES, pH 6.8, no Zn2+, 25°C), the “Interaction with immobilized isoD7-Aβ42 in the absence of Zn2+” value is “no interaction”. At immobilized isoD7-Aβ42 (immobilized isoD7-Aβ42, 100 µM ZnCl2, pH 6.8, 25°C), the Kd worked out at 10.4 ± 0.4 µM.
